Data from US11192863B2, “Antiviral compounds and methods” (Biotron Limited, priority 2003, dated 2021).
Structures can show the parent of a compound that is named as a salt. Where two headings read alike, the source gives them in different places.

What was measured:
[1] = system: HIV; assay type: cell-based; settings: for At least 1x log reduction seen in p24 assay?: Table 19b, yes/no
[2] = target: 229E-CoV E-protein (Human coronavirus 229E, UniProt P19741); test: Bacterial bio-assay for 229E-CoV E-protein; settings: halo of growth score; E. coli expressing E protein at 37° C.
[3] = system: bovine coronavirus (BCV); test: BCV plaque assay in MDBK cells; assay type: cell-based; settings: Betacoronavirus 1; BCV plaques in MDBK cells
[4] = target: SARS-CoV E protein (Severe acute respiratory syndrome coronavirus, UniProt P59637); assay type: cell-based
[5] = system: porcine respiratory coronavirus (PRCV) strain AR310; test: PRCV plaque assay in ST cells; assay type: cell-based; settings: Alphacoronavirus 1; PRCV plaques in ST cells
[6] = target: Vpu protein (Human immunodeficiency virus type 1 group M subtype B, UniProt P05919); settings: for Vpu Inhibition (score/# of times tested): halo of growth score between zero and six, XL1-blue E. coli with pPL-Vpu, no adenine, 37° C.
[7] = system: MHV (strain MHV-A59); settings: L929 cells
[8] = target: SARS E protein ion channel (Severe acute respiratory syndrome coronavirus, UniProt P59637); assay type: biochemical, SARS-CoV
[9] = system: MHV (strain MHV-A59); test: microbe, parasite or virus in culture; settings: Murine coronavirus, L929, read-out: Percent reduction in Plaque number/# experiments
[10] = system: human coronavirus OC43; test: microbe, parasite or virus in culture; assay type: cell-based; settings: Betacoronavirus 1, OC43, MRC5, 120 h, MRC-5 cells, 5 days post infection
[11] = system: SARS-CoV (Hong Kong strain); assay type: cell-based, SARS coronavirus; settings: for Titre (% control): 48 hours; for Average TCID50 (×10^6): 48 hours post infection
[12] = system: Dengue 1 strain Hawaii; test: Dengue cytoproliferation assay in LLC-MK2 cells (Alamar Blue); assay type: cell-based, Dengue virus; settings: 7 days
[13] = Table 19a, rank among 12 compounds, 1 = highest score

SARS-CoV E protein, sequence (P59637 whole entry, looked up): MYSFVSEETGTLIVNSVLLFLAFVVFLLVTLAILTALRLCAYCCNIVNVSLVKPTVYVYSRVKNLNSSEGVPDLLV
SARS E protein ion channel, sequence (P59637 whole entry, looked up): as above
229E-CoV E-protein, sequence (P19741 whole entry): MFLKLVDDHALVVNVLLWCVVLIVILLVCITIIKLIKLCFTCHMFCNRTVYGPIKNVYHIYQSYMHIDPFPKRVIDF
Vpu protein, sequence (P05919 whole entry): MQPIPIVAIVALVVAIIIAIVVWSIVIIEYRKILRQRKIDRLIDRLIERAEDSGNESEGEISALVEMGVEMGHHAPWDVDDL

Row | Structure (SMILES) | At least 1x log reduction seen in p24 assay? [1] | 229E E protein Inhibition (score) [2] | EC50 [3] | SARS E protein Inhibition (score/# of times tested) [4] | EC50 [5] | Bacterial assay rank order [6, 13] | Bacterial assay rank order ([6]; Table 19b) | Vpu Bacterial score ([6]; Table 19b) | Vpu Inhibition (score/# of times tested) [6] | Percent reduction in Plaque number/# experiments ([7]; 1 uM) | Percent reduction in Plaque number/# experiments ([7]; 10 uM) | Percent reduction in Plaque number/# experiments ([7]; 20 uM) | inhibition at 2.5 µM [10] | further results
1 | N=C(N)NC(=O)Cc1ccc2ccccc2c1 [2-(2-napthyl)acetoylguanidine] | no | 0.1 score | 99 µM | 0.71/1 score | 120 µM | 11 | 11 | 1.2 | 1.19/2 score | 23/1% | 20/2% | 52/1% | – | –
2 | N/C(=N\C(=O)c1nc(Cl)c(N)nc1N)NCc1ccc(Cl)cc1Cl [2′4 DichloroBenzamil HCl] | – | – | – | 3.00/2 score | – | – | – | – | 1.7/2 score | 0/3% | 0/3% | 12/2% | – | % Reduction of average current by 100 μM [8]: 78 ± 0%
3 | CCCCC/C=C/c1cccc(/C=C/C(=O)NC(=N)N)c1 [3-(trans-hept-1-en-1-yl)cinnamoylguanidine] | – | – | – | 1.71/1 score | – | – | – | – | 0.81/2 score | – | – | – | – | inhibition at 1 µM [9]: -6%; inhibition at 10 µM [9]: 23%
4 | N=C(N)NC(=O)/C=C/c1cccc(C(F)(F)F)c1 [3-(trifluoromethyl)cinnamoylguanidine] | yes | 2.3 score | 3 µM | 2.67/1 score | – | 2 | 2 | 3.7 | 3.7/2 score | 40/1% | 83/1% | 98/1% | 84% | Percent of Positive Control ([1]; Drug Conc. 0.625 μM): 38%; Percent of Positive Control ([1]; Drug Conc. 1.25 μM): 27%; Percent of Positive Control ([1]; Drug Conc. 2.5 μM): 25%; Percent of Positive Control ([1]; Drug Conc. 5 μM): 8%; Percent of Positive Control ([1]; Drug Conc. 10 μM): 11%
5 | Cc1cccc(/C=C/C(=O)NC(=N)N)c1 [3-methylcinnamoylguanidine] | yes | 0.5 score | – | 1.00/1 score | 1.43 µM | 3 | 3 | 3.4 | 3.4/2 score | 39/1% | 88/1% | 90/1% | 100% | –
6 | N=C(N)NC(=O)c1ccc(-c2ccccc2)cc1 [4-phenylbenzoylguanidine] | no | 2.3 score | 190 µM | 0.63/2 score | – | 7 | 7 | 2.8 | 2.75/5 score | 5/1% | 24/1% | 32/1% | – | Percent of Positive Control ([1]; Drug Conc. 0.625 μM): 10%; Percent of Positive Control ([1]; Drug Conc. 1.25 μM): 216%; Percent of Positive Control ([1]; Drug Conc. 2.5 μM): 9%; Percent of Positive Control ([1]; Drug Conc. 5 μM): 4%; Percent of Positive Control ([1]; Drug Conc. 10 μM): 26%
7 | COc1ccc2cc(C(=O)NC(=N)N)ccc2c1 [6-methoxy-2-naphthoylguanidine] | yes | 1.4 score | 9 µM | 3.13/3 score | 0.04 µM | 5.5 | 5.5 | 2.9 | 2.9/4 score | 34/3% | 56/3% | 88/3% | 47% | Titre (% control) ([11]; Compound Concentration 2 uM): 118 % control; Average TCID50 (×10^6) ([11]; Compound Concentration 2 uM): 6.35 ×10^6; Titre (% control) ([11]; Compound Concentration 10 uM): 111 % control; Average TCID50 (×10^6) ([11]; Compound Concentration 10 uM): 5.95 ×10^6; % Reduction of average current by 100 μM [8]: 92 ± 16%
8 | N=C(N)NC(=O)/C=C/c1ccccc1Br [(2-Bromocinnamoyl)guanidine] | – | 0.9 score | – | 2.47/3 score | – | – | – | – | 3.7/2 score | 52/3% | 89/3% | 91/2% | – | % Reduction of average current by 100 μM [8]: 88 ± 6%
9 | N=C(N)NC(=O)/C=C/c1ccccc1Cl [(2-Chlorocinnamoyl)guanidine] | – | 0.1 score | – | 3.1/3 score | – | – | – | – | 4.0/4 score | 53/3% | 88/3% | 95/2% | 96% | Antiviral Percent of Negative Control ([12]; Drug Conc. 0.625 μM): 64.3%; Antiviral Percent of Negative Control ([12]; Drug Conc. 1.25 μM): 52.5%; Antiviral Percent of Negative Control ([12]; Drug Conc. 2.5 μM): 22.7%; Antiviral Percent of Negative Control ([12]; Drug Conc. 5 μM): 7.7%; Antiviral Percent of Negative Control ([12]; Drug Conc. 10 μM): 8.4%
10 | NC(N)=NC(=O)/C=C/c1ccc(Br)cc1 [(4-Bromocinnamoyl)guanidine] | – | 2.0 score | – | 1.69/2 score | – | – | – | – | 2.5/4 score | 52/3% | 98/3% | – | 29% | Toxic (noted in place of plaque reduction) ([7]; 20 uM): Toxic/2
11 | NC(N)=NC(=O)/C=C/c1ccc(Cl)cc1 [(4-Chlorocinnamoyl)guanidine] | – | 1.4 score | – | 1.94/2 score | – | – | – | – | 2.7/5 score | 43/3% | 88/2% | 97/2% | 36% | –
12 | NC(N)=NC(=O)/C=C/C=C/c1ccccc1 [(5-Phenyl-penta-2,4-dienoyl)guanidine] | no | 1.8 score | 95 µM | 0.44/2 score | – | 8 | 8 | 2.6 | 2.56/2 score | 17/1% | 24/1% | 27/1% | 9% | –
13 | N=C(N)NC(=O)C1CC1c1ccccc1 (stereo not drawn) [(trans-2-Phenylcyclopropanecarbonyl)guanidine] | no | 0.8 score | 109 µM | 1.34/3 score | 17.2 µM | 12 | 12 | 0.4 | 0.4/2 score | 31/2% | 64/2% | 77/2% | 71% | –
14 | O=C(CCc1ccccc1)NC(=Nc1ccccc1)NC(=O)CCc1ccccc1 [N,N′-bis(3phenylpropanoyl)-N″-phenylguanidine] | – | 0.1 score | – | 1.33/3 score | – | – | – | – | 2.25/3 score | 1/3% | 40/4% | 67/3% | – | % Reduction of average current by 100 μM [8]: 88 ± 6%
15 | N=C(NC(=O)CCc1ccccc1)Nc1ccccc1 [N-(3-phenylpropanoyl)-N′-phenylguanidine] | no | 0.1 score | 156 µM | 1.57/2 score | 19 µM | 9 | 9 | 2.2 | 2.21/3 score | 43/1% | 65/1% | 80/1% | – | –
